Source: ChEMBL document CHEMBL1201862, “PubChem BioAssay data set” (2004)
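All cell lines were grown in 96-well plates and treated with compound for 48 hours. At the GI50, growth is halved.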 The source made the active and inactive calls. Rule as the data show it: active = GI50 up to about 1.1 µM and inactive = higher.

Tests used:
Assay in all cases: DTP human tumour cell line panel, 48 h
[1] = tested on: NCI-H522
[2] = tested on: DMS-273
[3] = tested on: ACHN
[4] = tested on: 786-0
[5] = tested on: M19-MEL
[6] = tested on: SF-268
[7] = tested on: HCT-15
[8] = tested on: SN12C
[9] = tested on: M14
[10] = tested on: TK-10
[11] = tested on: HT-29
[12] = tested on: A549
[13] = tested on: SK-MEL-5
[14] = tested on: NCI-H460
[15] = tested on: LOX IMVI
[16] = tested on: KM12
[17] = tested on: COLO 205
[18] = tested on: CCRF-CEM
[19] = tested on: IGROV-1
[20] = tested on: SR
[21] = tested on: DMS-114
[22] = tested on: OVCAR-4
[23] = tested on: SNB-75
[24] = tested on: UACC-62
[25] = tested on: LXFL 529
[26] = tested on: SNB-19
[27] = tested on: SF-295
[28] = tested on: OVCAR-5
[29] = tested on: SW-620
[30] = tested on: MOLT-4
[31] = tested on: HL-60
[32] = tested on: RXF 393
[33] = tested on: K562
[34] = tested on: EKVX
[35] = tested on: U-251
[36] = tested on: SK-MEL-2
[37] = tested on: UO-31
[38] = tested on: HOP-62
[39] = tested on: HCT-116
[40] = tested on: SF-539
[41] = tested on: XF498
[42] = tested on: SK-MEL-28
[43] = tested on: OVCAR-8
[44] = tested on: NCI-H226
[45] = tested on: NCI-H23
[46] = tested on: DLD-1
[47] = tested on: KM-20L2
[48] = tested on: OVCAR-3
[49] = tested on: CAKI-1
[50] = tested on: RPMI-8226
[51] = tested on: HCC 2998
[52] = tested on: HOP-92
[53] = tested on: Malme-3M
[54] = tested on: SK-OV-3

For `CN(C)CCNC(=O)c1cccc2c(Nc3ccc(S(=O)(=O)N=C(N)N)cc3)c3ccccc3nc12`, the GI50 [1] was 3.97 µM (inactive), the GI50 [2] was 6.59 µM (inactive) and the GI50 [3] was 22.1 µM (inactive). For the same compound, the GI50 [4] was 18 µM (inactive), the GI50 [5] was 18.7 µM (inactive) and the GI50 [6] was 7.24 µM (inactive). The GI50 [7] was 99.1 µM, the GI50 [8] was 5.15 µM (inactive) and the GI50 [9] was 30.8 µM (inactive). For the same compound, the GI50 [10] was 75.9 µM (inactive), the GI50 [11] was 16.3 µM (inactive) and the GI50 [12] was 10.6 µM (inactive). The GI50 [13] was 13.9 µM (inactive), the GI50 [14] was 3.17 µM (inactive) and the GI50 [15] was 5.94 µM (inactive). For the same compound, the GI50 [16] was 31.3 µM (inactive), the GI50 [17] was 9.04 µM (inactive) and the GI50 [18] was 2.57 µM (inactive). The GI50 [19] was 7.1 µM (inactive), the GI50 [20] was 2.61 µM (inactive) and the GI50 [21] was 2.34 µM (inactive). The GI50 [22] was 13.5 µM (inactive), the GI50 [23] was 15.1 µM (inactive) and the GI50 [24] was 10.3 µM (inactive). The GI50 [25] was 7.89 µM (inactive), the GI50 [26] was 3.37 µM (inactive) and the GI50 [27] was 17.3 µM (inactive). The GI50 [28] was 28.4 µM (inactive), the GI50 [29] was 7.23 µM (inactive) and the GI50 [30] was 2.03 µM (inactive). The GI50 [31] was 0.684 µM (active), the GI50 [32] was 28 µM (inactive) and the GI50 [33] was 11.9 µM (inactive). The GI50 [34] was 20.6 µM (inactive), the GI50 [35] was 8.36 µM (inactive) and the GI50 [36] was 19.2 µM (inactive). For the same compound, the GI50 [37] was 10 µM (inactive), the GI50 [38] was 11.3 µM (inactive) and the GI50 [39] was 25.8 µM (inactive). For the same compound, the GI50 [40] was 11.3 µM (inactive), the GI50 [41] was 19.3 µM (inactive) and the GI50 [42] was 24.5 µM (inactive). For the same compound, the GI50 [43] was 8.79 µM (inactive), the GI50 [44] was 2.19 µM (inactive) and the GI50 [45] was 29 µM (inactive). For the same compound, the GI50 [46] was 69.8 µM (inactive) and the GI50 [47] was 32.9 µM (inactive).

In the case of `O=C1OC2(OC2c2ccc(Cl)cc2)c2ccccc21` (configuration not stated), the GI50 [1] is reported as 31.9 µM (inactive), the GI50 [2] is reported as > 100 µM (inactive) and the GI50 [3] is reported as 94.2 µM (inactive). For the same compound, the GI50 [5] was > 100 µM (inactive), the GI50 [6] was > 100 µM (inactive) and the GI50 [7] was over 100 µM. The GI50 [8] was > 100 µM (inactive), the GI50 [9] was > 100 µM (inactive) and the GI50 [10] was > 100 µM (inactive). The GI50 [11] was > 100 µM (inactive), the GI50 [48] was > 100 µM (inactive) and the GI50 [12] was > 100 µM (inactive). For the same compound, the GI50 [14] was > 100 µM (inactive), the GI50 [15] was 17.8 µM (inactive) and the GI50 [49] was > 100 µM (inactive). The GI50 [16] was 71.1 µM (inactive), the GI50 [50] was 89.1 µM (inactive) and the GI50 [17] was > 100 µM (inactive). For the same compound, the GI50 [18] was 51.5 µM (inactive), the GI50 [19] was > 100 µM (inactive) and the GI50 [20] was > 100 µM (inactive). The GI50 [21] was 64.7 µM (inactive), the GI50 [22] was 42.6 µM (inactive) and the GI50 [23] was 48.1 µM (inactive). The GI50 [24] was > 100 µM (inactive), the GI50 [51] was > 100 µM (inactive) and the GI50 [25] was 22.7 µM (inactive). The GI50 [26] was 73.8 µM (inactive), the GI50 [52] was > 100 µM (inactive) and the GI50 [27] was 85.7 µM (inactive). The GI50 [28] was > 100 µM (inactive), the GI50 [29] was > 100 µM (inactive) and the GI50 [30] was > 100 µM (inactive). The GI50 [31] was 34.3 µM (inactive), the GI50 [32] was 62.7 µM (inactive) and the GI50 [33] was 53.1 µM (inactive). For the same compound, the GI50 [34] was > 100 µM (inactive), the GI50 [36] was > 100 µM (inactive) and the GI50 [37] was > 100 µM (inactive). The GI50 [53] was > 100 µM (inactive), the GI50 [38] was 20.4 µM (inactive) and the GI50 [39] was > 100 µM (inactive). For the same compound, the GI50 [40] was > 100 µM (inactive), the GI50 [41] was 43.4 µM (inactive) and the GI50 [42] was > 100 µM (inactive). The GI50 [43] was > 100 µM (inactive), the GI50 [54] was > 100 µM (inactive) and the GI50 [44] was > 100 µM (inactive). For the same compound, the GI50 [46] was > 100 µM (inactive) and the GI50 [47] was > 100 µM (inactive).
